Test results taken from paper PMC8581430, “Peptide ligands targeting FGF receptors promote recovery from dorsal root crush injury via AKT/mTOR signaling” (Theranostics, 2021).

Key:
DRG explants = assay: Axon growth of ex vivo cultured adult DRG explants; assay type: cell-based, Sprague-Dawley rat; conditions: CH02 20 μM + Torin1 1 μM, 4 days, n = 4
Experimental: Figure 3 Effect of the CH02 peptide on axon growth and neuron survival. (A) Representative images of the CH02 peptide effect on axon growth in adult primary DRG neurons. DRG neurons were obtained from adult Sprague-Dawley rats. After 12-h of culture, neurons were stimulated with CH02 or bFGF for 48 h. Axonal outgrowth was assessed by immunocytochemistry using an antibody against β-tubulin, an axonal marker. Images were acquired from random neurons by fluorescence microscopy. Scale bars = 50 μm. (B) Quantification of the longest axon length of each neuron randomly selected in three independent experiments from (A), using Image-Pro Plus 6.0 software (n = 48 for each condition; *p < 0.05, ****p < 0.0001 by one-way ANOVA with Dunnett's test; ns, not significant; mean ± SD). (C) Representative images of the CH02 effect on axon growth in ex vivo cultured adult DRG explants. The axon is shown in fluorescence (β3-tubulin) images. Scale bars = 100 μm. (D) Quantification of axon growth of DRG explants from (C) using the Neurite-J software (n=4 for each condition; *control vs. CH02; #control vs. bFGF; *p < 0.05, **p < 0.01, ***p < 0.001, #p < 0.05, ##p < 0.01 by two-way ANOVA with Dunnett's test; ns, not significant; mean ± SEM). (E) Cell cytotoxicity assay of primary DRG neurons induced by H2O2. LDH released from damaged cell membranes was detected by an LDH assay kit. The results are expressed as the mean ± SEM (**p < 0.01 by one-way ANOVA with Dunnett's test; ns, not significant, compared with the control group). […] Apoptotic neurons were detected by a TUNEL apoptosis assay kit. […] (G) Quantification of TUNEL-positive neurons from (F) (n = 3 for each condition; **p < 0.01 by one-way ANOVA with Dunnett's test; ns, not significant, compared with the control group). […]
DRG explants were harvested from adult Sprague-Dawley rats (220-250 g) and placed in a 3.5 cm dish containing 2 mL of ice-cold neurobasal medium supplemented with 1 × B27, 4 mM Glutamax and 3× penicillin/streptomycin (Pen/Strep). […] After 7 days of culture, axon growth was measured. […]

primary DRG neurons = assay: Axon growth of primary adult DRG neurons; assay type: cell-based, Sprague-Dawley rat; conditions: CH02 20 μM + Torin1 1 μM, 48 h, n = 62
Experimental: Figure 3 Effect of the CH02 peptide on axon growth and neuron survival. (A) Representative images of the CH02 peptide effect on axon growth in adult primary DRG neurons. DRG neurons were obtained from adult Sprague-Dawley rats. After 12-h of culture, neurons were stimulated with CH02 or bFGF for 48 h. Axonal outgrowth was assessed by immunocytochemistry using an antibody against β-tubulin, an axonal marker. Images were acquired from random neurons by fluorescence microscopy. Scale bars = 50 μm. (B) Quantification of the longest axon length of each neuron randomly selected in three independent experiments from (A), using Image-Pro Plus 6.0 software (n = 48 for each condition; *p < 0.05, ****p < 0.0001 by one-way ANOVA with Dunnett's test; ns, not significant; mean ± SD). (C) Representative images of the CH02 effect on axon growth in ex vivo cultured adult DRG explants. The axon is shown in fluorescence (β3-tubulin) images. Scale bars = 100 μm. (D) Quantification of axon growth of DRG explants from (C) using the Neurite-J software (n=4 for each condition; *control vs. CH02; #control vs. bFGF; *p < 0.05, **p < 0.01, ***p < 0.001, #p < 0.05, ##p < 0.01 by two-way ANOVA with Dunnett's test; ns, not significant; mean ± SEM). (E) Cell cytotoxicity assay of primary DRG neurons induced by H2O2. LDH released from damaged cell membranes was detected by an LDH assay kit. The results are expressed as the mean ± SEM (**p < 0.01 by one-way ANOVA with Dunnett's test; ns, not significant, compared with the control group). (F) Representative TUNEL staining of apoptotic neurons induced by H2O2 in the control, CH02, and FGF2 groups. Scale bars = 50 μm. Apoptotic neurons were detected by a TUNEL apoptosis assay kit. TUNEL (green); NeuN, neuronal marker (red); DAPI (blue). (G) Quantification of TUNEL-positive neurons from (F) (n = 3 for each condition; **p < 0.01 by one-way ANOVA with Dunnett's test; ns, not significant, compared with the control group). DRG neurons were obtained from adult Sprague-Dawley rats. […]

[1] = tested on: dorsal root injury (DRI) model; assay: Plantar test after dorsal root crush injury; assay type: in vivo, Sprague-Dawley rat; conditions: rats after C5-T1 dorsal root crush, up to 8 weeks, n = 5
Experimental: (§1) Animals were anesthetized by intraperitoneal injection of pentobarbital sodium (40 mg/kg body weight) and local injection of 0.5% lidocaine. Under sterile conditions, a skin incision between the C4 and T2 spinous processes was made using a no. 10 scalpel blade. Subsequent surgeries were performed under a stereomicroscope. The muscles attached to the lamina were separated and removed using a surgical blade and microscissors to expose the lamina. A right hemilaminectomy on the C5-T1 vertebrae was performed using a fine rongeur to expose the right C5-T1 DRGs and associated dorsal roots. After dura mater opening, a concurrent C5 -T1 dorsal root crush injury was performed using no. 7 forceps. The tines of the forceps were inserted above and below the root, halfway between the dorsal root ganglia and DREZ. Each root was crushed three times, five times each, to ensure that the dorsal roots were crushed to sever all the axons within the root completely. […]
Animals treated with CH02 or FGF2 (n = 5 animals per group) were assessed using the following behavioral tests:
Animals were acclimated to the testing room for at least 60 min before baseline testing, conducted before any surgical procedure. After dorsal root crush injuries, temperature sensation was measured twice a week for 8 weeks. […] Simultaneously, the paw withdrawal latency was recorded. […]

[2] = tested on: dorsal root injury (DRI) model; assay: Von Frey test after dorsal root crush injury; assay type: in vivo, Sprague-Dawley rat; conditions: rats after C5-T1 dorsal root crush, up to 8 weeks, n = 5
Experimental: as §1, with “DREZ.” for “DREZ. Each root was crushed three times, five times each, to ensure that the dorsal roots were crushed to sever all the axons within the root completely.”
Animals treated with CH02 or FGF2 (n = 5 animals per group) were assessed using the following behavioral tests: […]
After an acclimation period, the animal was stimulated using a Von Frey-type 0.5 mm filament, which was placed below the center of the plantar surface of the tested paw with increasing pressure. On every test day, each foot (left front and right front) was measured 5 times at 5-min intervals, and the number of paw withdrawals was recorded.

Molecule | effect of mTOR inhibitor on CH02-promoted axon growth, DRG explants (DRG explants) | effect of mTOR inhibitor on CH02-promoted axon growth, primary neurons (primary DRG neurons) | thermal sensation recovery [1] | pressure sensation recovery [2]
CCC(=O)N1CCN(c2ccc(-n3c(=O)ccc4cnc5ccc(-c6cnc7ccccc7c6)cc5c43)cc2C(F)(F)F)CC1 [Torin1] | greatly reduced the effect of the CH02 peptide in promoting axon growth | greatly reduced the effect of the CH02 peptide in promoting axon growth |  | 
FGF2 |  |  | significantly improved | significantly improved
